Laboratory results published in PMC8949600, “In Vitro & In Vivo Studies on Identifying and Designing Temporin-1CEh from the Skin Secretion of Rana chensinensis as the Optimised Antibacterial Prototype Drug” (Pharmaceutics, 2022).
Read-outs that look alike come from different tables or passages of the source. Ends that are not written are not given here.

Key:
[1] = 50% TFE environment ref 44; cited from earlier work
Excerpt: As the same situation found in the study of Temporin B KKG6A [31], T1CEh-KK experienced an improvement in antimicrobial activity, especially for the inhibition of the growth of E. coli. In addition, the substitution by proline leads to the weakening of the antimicrobial ability of T1CEh-KKP except for against S. aureus.

[2] = system: S. aureus (ATCC CRM 6538); format: cell-based
Procedure: (§1) A measure of 5 × 10^5 CFU/mL of bacterial suspension including 2-fold dilution peptides (ranging from 1 µM to 512 µM) was incubated in 96-well plates for 16–20 h at 37 °C. For the positive and negative control, 200 mg/L of final concentration of norfloxacin and 1% DMSO were applied, respectively. […] Subsequently, 10 µL of the solution in each clear well was dropped on a Mueller–Hinton agar (MHA) plate and incubated at 37 °C for 16–20 h. The lowest concentration without colony growth was considered as the MBCs.
(§2) Mueller–Hinton broth (MHB) at pH 6.0 and 8.0 as well as MHB containing 10% of Fetal Bovine Serum (FBS), 150 mM of NaCl, 1 mM of MgCl2 and 4 µM of FeCl3, respectively, were prepared. In particular, the pathogens were diluted by the preprepared mediums to a final concentration of 5 × 10^5 CFU/mL after growing to the logarithmic phase, and other operations followed the MIC assay.

MRSA (NCTC 12493) = format: cell-based
Procedure: as §1, §2

[3] = system: K. pneumoniae (ATCC 43816); format: cell-based
Procedure: as §1, §2

E. faecalis (NCTC 12697) = format: cell-based
Procedure: as §1, §2

[4] = system: P. aeruginosa (ATCC 27853); format: cell-based
Procedure: as §1, §2

E. coli (ATCC 8739) = format: cell-based
Procedure: as §1, §2

[5] = system: S. aureus (ATCC CRM 6538) biofilm; format: cell-based
Procedure: (§3) The anti-biofilm activities were tested on S. aureus and E. coli, as indicated previously. For the positive and negative control, 20 mg/mL of vancomycin and 1% DMSO were applied, respectively, in both assays. In addition, 0.1% Crystal Violet was used as the biofilm colouring agent.

[6] = system: erythrocytes from defibrinated horse blood; test: Haemolysis assay
Excerpt: (§4) The erythrocytes from defibrinated horse blood (TCS Biosciences Ltd., Buckingham, UK) were used to perform the haemolysis assay, as described previously [27]. Equal volumes of PBS and 2% (v/v) of the non-ionic detergent, Triton X-100 (Sigma–Aldrich, St. Louis, MO, USA) in PBS solution, were used as negative and positive controls, respectively. HC50 was defined as the mean peptide concentration producing 50% haemolysis.

[7] = system: erythrocytes from defibrinated horse blood; settings: 256 µM
Excerpt: as §4

[8] = system: E. coli (ATCC 8739) biofilm; format: cell-based
Procedure: as §3

Substance | MBC ([2]; ATCC CRM 6538) | MIC ([2]; ATCC CRM 6538) | MIC ([2]; ATCC CRM 6538, pH 6) | MIC ([2]; ATCC CRM 6538, pH 7) | MIC ([2]; ATCC CRM 6538, pH 8) | MBC (MRSA (NCTC 12493); NCTC 12493) | MIC (MRSA (NCTC 12493); NCTC 12493) | MIC (MRSA (NCTC 12493); NCTC 12493, pH 6) | MIC (MRSA (NCTC 12493); NCTC 12493, pH 7) | MIC (MRSA (NCTC 12493); NCTC 12493, pH 8) | MBC ([3]; ATCC 43816) | MIC ([3]; ATCC 43816) | MIC ([3]; ATCC 43816, pH 6) | MIC ([3]; ATCC 43816, pH 7) | MIC ([3]; ATCC 43816, pH 8) | MBC (E. faecalis (NCTC 12697); NCTC 12697) | MIC (E. faecalis (NCTC 12697); NCTC 12697) | MIC (E. faecalis (NCTC 12697); NCTC 12697, pH 6) | MIC (E. faecalis (NCTC 12697); NCTC 12697, pH 7) | MIC (E. faecalis (NCTC 12697); NCTC 12697, pH 8) | other results
Buforin II |  |  |  |  |  |  |  |  |  |  |  |  |  |  |  |  |  |  |  |  | helicity percent [1]: 43%
FVDLKKIANILNSIF-NH2 [Temporin-1CEh] | 16 µM | 8 µM | 128 µM | 8 µM | 128 µM | 16 µM | 16 µM | 256 µM | 16 µM | 256 µM | 256 µM | 256 µM | >512 µM | 256 µM | >512 µM | 32 µM | 32 µM | >512 µM | 32 µM | >512 µM | MBC ([4]; ATCC 27853): 256 µM; MIC ([4]; ATCC 27853): 128 µM; MIC ([4]; ATCC 27853, pH 6): >512 µM; MIC ([4]; ATCC 27853, pH 7): 128 µM; MIC ([4]; ATCC 27853, pH 8): >512 µM; MIC (E. coli (ATCC 8739); ATCC 8739): 128/128 μM; MIC (E. coli (ATCC 8739); ATCC 8739, pH 6): >512 µM; MIC (E. coli (ATCC 8739); ATCC 8739, pH 7): 128 µM; MIC (E. coli (ATCC 8739); ATCC 8739, pH 8): >512 µM; MBEC [5]: > 256 µM; MBIC [5]: 64 µM; HC50 ([6]; mean peptide concentration producing 50% haemolysis, horse erythrocytes): 152.6 µM; haemolysis rate [7]: 92.3%
KKWVPLKKIANIL-NH2 [Peptide T1CEh-KKPW] | 16 µM | 8 µM | >512 µM | 8 µM | 32 µM | 64 µM | 16 µM | >512 µM | 16 µM | 128 µM | 16 µM | 16 µM | 256 µM | 16 µM | 128 µM | > 512 µM | > 512 µM | >512 µM | >512 µM | 256 µM | MBC ([4]; ATCC 27853): 64 µM; MIC ([4]; ATCC 27853): 32 µM; MIC ([4]; ATCC 27853, pH 6): 64 µM; MIC ([4]; ATCC 27853, pH 7): 32 µM; MIC ([4]; ATCC 27853, pH 8): 32 µM; MBC (E. coli (ATCC 8739); ATCC 8739): 16 µM; MIC (E. coli (ATCC 8739); ATCC 8739): 8 µM; MIC (E. coli (ATCC 8739); ATCC 8739, pH 6): 16 µM; MIC (E. coli (ATCC 8739); ATCC 8739, pH 7): 8 µM; MIC (E. coli (ATCC 8739); ATCC 8739, pH 8): 8 µM; MBEC [8]: > 256 µM; MBIC [8]: 16 µM; MBEC [5]: > 256 µM; MBIC [5]: 16 µM; haemolysis rate ([6]; at 256 μM, horse erythrocytes): lower than 10%
KKWVPWKKIANIL-NH2 [Peptide T1CEh-KKPWW] | 4 µM | 4 µM | 32 µM | 4 µM | 4 µM | 256 µM | 32 µM | 256 µM | 32 µM | 32 µM | 4 µM | 4 µM | 32 µM | 4 µM | 8 µM | 128 µM | 128 µM | >512 µM | 128 µM | 64 µM | MBC ([4]; ATCC 27853): 16 µM; MIC ([4]; ATCC 27853): 16 µM; MIC ([4]; ATCC 27853, pH 6): 16 µM; MIC ([4]; ATCC 27853, pH 7): 16 µM; MIC ([4]; ATCC 27853, pH 8): 4 µM; MBC (E. coli (ATCC 8739); ATCC 8739): 4 µM; MIC (E. coli (ATCC 8739); ATCC 8739): 4 µM; MIC (E. coli (ATCC 8739); ATCC 8739, pH 6): 4 µM; MIC (E. coli (ATCC 8739); ATCC 8739, pH 7): 4 µM; MIC (E. coli (ATCC 8739); ATCC 8739, pH 8): 4 µM; MBEC [8]: > 256 µM; MBEC [5]: > 256 µM; haemolysis rates ([6]; concentration not stated at the place (gradient of Figure 4)): lower than 6%
